Laboratory results published in ChEMBL document CHEMBL1201862, “PubChem BioAssay data set” (2004).
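Where inhibition never reached the appropriate level, the endpoint shown equals the highest concentration tested. Otherwise, values were interpolated linearly from a five-concentration, 48-hour dose response in 96-well plates. Abbreviation: GI50, concentration required for 50% inhibition of growth.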 Calls of active or inactive are those of the source. No stated cut-off is given here; in the data, active = GI50 up to about 1.1 µM and inactive = higher.

How the values were obtained:
Experiment in all cases: NCI-60 cell line screen, 48 h
A498 = system: A498
A549 = system: A549
BT-549 = system: BT-549
CAKI-1 = system: CAKI-1
DU-145 = system: DU-145
EKVX = system: EKVX
HCT-116 = system: HCT-116
HL-60 = system: HL-60
HOP-62 = system: HOP-62
LOX IMVI = system: LOX IMVI
Malme-3M = system: Malme-3M
NCI-H23 = system: NCI-H23
OVCAR-8 = system: OVCAR-8
SF-268 = system: SF-268
SF-539 = system: SF-539
SK-MEL-5 = system: SK-MEL-5
SW-620 = system: SW-620
T47D = system: T47D
TK-10 = system: TK-10
HCC 2998 = system: HCC 2998

Compound	GI50 (A498)	GI50 (A549)	GI50 (BT-549)	GI50 (CAKI-1)	GI50 (DU-145)	GI50 (EKVX)	GI50 (HCT-116)	GI50 (HL-60)	GI50 (HOP-62)	GI50 (LOX IMVI)	GI50 (Malme-3M)	GI50 (NCI-H23)	GI50 (OVCAR-8)	GI50 (SF-268)	GI50 (SF-539)	GI50 (SK-MEL-5)	GI50 (SW-620)	GI50 (T47D)	GI50 (TK-10)	GI50 (HCC 2998)
O=C(O)COc1c(Cl)cc(Cl)c2cccnc12	> 100 µM (inactive)	> 100 µM (inactive)	> 100 µM (inactive)	> 100 µM (inactive)	> 100 µM (inactive)	> 100 µM (inactive)	> 100 µM (inactive)	> 100 µM (inactive)	> 100 µM (inactive)	> 100 µM (inactive)	> 100 µM (inactive)	> 100 µM (inactive)	> 100 µM (inactive)	> 100 µM (inactive)	> 100 µM (inactive)	> 100 µM (inactive)	> 100 µM (inactive)	> 100 µM (inactive)	> 100 µM (inactive)	–
NC1=NC(c2ccc(Cl)cc2)N(c2ccc(S(N)(=O)=O)cc2)C(N)=N1 (stereo not given)	> 100 µM (inactive)	> 100 µM (inactive)	> 100 µM (inactive)	> 100 µM (inactive)	> 100 µM (inactive)	> 100 µM (inactive)	> 100 µM (inactive)	–	> 100 µM (inactive)	> 100 µM (inactive)	> 100 µM (inactive)	> 100 µM (inactive)	> 100 µM (inactive)	> 100 µM (inactive)	> 100 µM (inactive)	> 100 µM (inactive)	> 100 µM (inactive)	> 100 µM (inactive)	> 100 µM (inactive)	–
C(=N\c1cnc2ccccc2c1)/c1ccc2ccccc2n1	> 100 µM (inactive)	> 100 µM (inactive)	> 100 µM (inactive)	> 100 µM (inactive)	> 100 µM (inactive)	> 100 µM (inactive)	35.6 µM (inactive)	53.3 µM (inactive)	> 100 µM (inactive)	72.9 µM (inactive)	> 100 µM (inactive)	> 100 µM (inactive)	> 100 µM (inactive)	> 100 µM (inactive)	> 100 µM (inactive)	> 100 µM (inactive)	64.1 µM (inactive)	> 100 µM (inactive)	> 100 µM (inactive)	–
FC(F)(Sc1ncccn1)c1nc2ccccc2o1	> 100 µM (inactive)	> 100 µM (inactive)	> 100 µM (inactive)	> 100 µM (inactive)	> 100 µM (inactive)	–	84.3 µM (inactive)	–	> 100 µM (inactive)	–	> 100 µM (inactive)	> 100 µM (inactive)	> 100 µM (inactive)	> 100 µM (inactive)	> 100 µM (inactive)	> 100 µM (inactive)	> 100 µM (inactive)	> 100 µM (inactive)	> 100 µM (inactive)	> 100 µM (inactive)
CC(O)(c1ccccc1)c1nccc2ccccc12 (stereo not given)	71.4 µM (inactive)	87.3 µM (inactive)	56.1 µM (inactive)	> 100 µM (inactive)	> 100 µM (inactive)	–	61.4 µM (inactive)	> 100 µM (inactive)	> 100 µM (inactive)	75.9 µM (inactive)	64.1 µM (inactive)	> 100 µM (inactive)	> 100 µM (inactive)	95.7 µM (inactive)	–	44.2 µM (inactive)	77.6 µM (inactive)	68.1 µM (inactive)	> 100 µM (inactive)	> 100 µM (inactive)
O=c1[nH][nH]c(=O)n1Cc1ccccc1Cn1c(=O)[nH][nH]c1=O	> 100 µM (inactive)	> 100 µM (inactive)	> 100 µM (inactive)	> 100 µM (inactive)	> 100 µM (inactive)	> 100 µM (inactive)	> 100 µM (inactive)	> 100 µM (inactive)	> 100 µM (inactive)	> 100 µM (inactive)	> 100 µM (inactive)	> 100 µM (inactive)	> 100 µM (inactive)	> 100 µM (inactive)	> 100 µM (inactive)	> 100 µM (inactive)	> 100 µM (inactive)	> 100 µM (inactive)	> 100 µM (inactive)	–
COC1=CC(=O)c2nc3ccccc3c3ccnc1c23	–	1.12 µM (inactive)	14.6 µM (inactive)	14.3 µM (inactive)	3.25 µM (inactive)	12.6 µM (inactive)	1.2 µM (inactive)	2.38 µM (inactive)	5.74 µM (inactive)	0.565 µM (active)	1.58 µM (inactive)	1.35 µM (inactive)	3.26 µM (inactive)	3.94 µM (inactive)	2.92 µM (inactive)	0.653 µM (active)	1.03 µM (active)	5.71 µM (inactive)	19.3 µM (inactive)	3.1 µM (inactive)
C=C1C(=O)C2(C)OC2(C)C1C(=O)O (stereo not given)	–	> 100 µM (inactive)	> 100 µM (inactive)	> 100 µM (inactive)	> 100 µM (inactive)	> 100 µM (inactive)	> 100 µM (inactive)	> 100 µM (inactive)	> 100 µM (inactive)	> 100 µM (inactive)	–	> 100 µM (inactive)	> 100 µM (inactive)	> 100 µM (inactive)	> 100 µM (inactive)	> 100 µM (inactive)	> 100 µM (inactive)	> 100 µM (inactive)	> 100 µM (inactive)	> 100 µM (inactive)
C=CCOC(=O)CCCCCCCCCCCCCCCOC(=O)C1=C(CCC[C@@H](C)O[Si](C)(C)C(C)(C)C)NC(=O)N2[C@H](CC3(CC/C=C\[C@H](CC)O[Si](C(C)C)(C(C)C)C(C)C)OCCO3)CC[C@H]12	> 100 µM (inactive)	> 100 µM (inactive)	> 100 µM (inactive)	> 100 µM (inactive)	> 100 µM (inactive)	> 100 µM (inactive)	> 100 µM (inactive)	–	> 100 µM (inactive)	–	> 100 µM (inactive)	> 100 µM (inactive)	–	> 100 µM (inactive)	67.3 µM (inactive)	> 100 µM (inactive)	–	> 100 µM (inactive)	> 100 µM (inactive)	> 100 µM (inactive)
CCOC(=O)c1cc(Sc2ccc(N)c(C(=O)OCC)c2)ccc1N	21.6 µM (inactive)	19.6 µM (inactive)	> 100 µM (inactive)	7.69 µM (inactive)	> 100 µM (inactive)	13.5 µM (inactive)	> 100 µM (inactive)	16.7 µM (inactive)	14.8 µM (inactive)	–	11.6 µM (inactive)	25.3 µM (inactive)	20.7 µM (inactive)	16.1 µM (inactive)	24.9 µM (inactive)	> 100 µM (inactive)	> 100 µM (inactive)	> 100 µM (inactive)	–	–
CC(=O)C(=C(c1ccccc1)c1ccccc1)c1ccccc1	–	> 100 µM (inactive)	> 100 µM (inactive)	–	> 100 µM (inactive)	15.6 µM (inactive)	> 100 µM (inactive)	20.5 µM (inactive)	> 100 µM (inactive)	> 100 µM (inactive)	> 100 µM (inactive)	> 100 µM (inactive)	> 100 µM (inactive)	> 100 µM (inactive)	> 100 µM (inactive)	> 100 µM (inactive)	> 100 µM (inactive)	> 100 µM (inactive)	> 100 µM (inactive)	> 100 µM (inactive)
CC1(C)CC(=O)c2c(nc3c(ccc4ccccc43)c2-c2ccc(NC(=O)CCC(=O)Nc3ccc(-c4c5c(nc6c4ccc4ccccc46)CC(C)(C)CC5=O)cc3)cc2)C1	–	> 100 µM (inactive)	> 100 µM (inactive)	> 100 µM (inactive)	> 100 µM (inactive)	95.3 µM (inactive)	> 100 µM (inactive)	> 100 µM (inactive)	> 100 µM (inactive)	> 100 µM (inactive)	–	–	> 100 µM (inactive)	> 100 µM (inactive)	> 100 µM (inactive)	> 100 µM (inactive)	> 100 µM (inactive)	> 100 µM (inactive)	> 100 µM (inactive)	–
Cc1cc(-c2nc3ccccc3s2)ccc1NC(=O)[C@H](C)N	14.4 µM (inactive)	13.7 µM (inactive)	15.7 µM (inactive)	11.3 µM (inactive)	15.3 µM (inactive)	–	10.9 µM (inactive)	–	13.8 µM (inactive)	5.06 µM (inactive)	24 µM (inactive)	16.5 µM (inactive)	17.9 µM (inactive)	18.3 µM (inactive)	–	13 µM (inactive)	14.8 µM (inactive)	0.128 µM (active)	–	10.6 µM (inactive)
CCCc1c(O)nc(Nc2nc3ccccc3[nH]2)[nH]c1=O	> 100 µM (inactive)	> 100 µM (inactive)	> 100 µM (inactive)	> 100 µM (inactive)	> 100 µM (inactive)	> 100 µM (inactive)	> 100 µM (inactive)	84.9 µM (inactive)	–	–	> 100 µM (inactive)	> 100 µM (inactive)	> 100 µM (inactive)	> 100 µM (inactive)	> 100 µM (inactive)	> 100 µM (inactive)	> 100 µM (inactive)	> 100 µM (inactive)	> 100 µM (inactive)	–
Fc1cccc2nc(-c3ccccc3)cc(OCc3ccccc3)c12	> 100 µM (inactive)	83.4 µM (inactive)	> 100 µM (inactive)	–	> 100 µM (inactive)	20.8 µM (inactive)	> 100 µM (inactive)	> 100 µM (inactive)	> 100 µM (inactive)	> 100 µM (inactive)	> 100 µM (inactive)	> 100 µM (inactive)	> 100 µM (inactive)	> 100 µM (inactive)	–	28.4 µM (inactive)	> 100 µM (inactive)	89.3 µM (inactive)	> 100 µM (inactive)	> 100 µM (inactive)
